Measurements: PubChem BioAssay AID2060494 (Molecular Pharmacology Branch, DTP, NCI, 2025)

System: 435261-313-R-J1-PDC complex spheroid viability
Assay: Anticancer human tumor 435261-313-R-J1-PDC patient-derived colon adenocarcinoma cell line growth inhibition [GQUAD]
Settings: for IC50: curve of first compound; for viability, T/C: stronger effect = lower value
Excerpt: DNA G-quadruplex Stabilizer Agents in Combinations in Complex Spheroids
A high-throughput screen of multi-cell type tumor spheroids was designed to identify active combinations of DNA G-quadruplex stabilizer agents and targeted small molecules. Complex spheroids include a stromal component modeled by human endothelial cells (HUVEC) and fibroblasts modeled by human mesenchymal stem cells (MSCs). The concentration ranges selected for each drug and investigational agent were based upon clinically achievable concentrations if the clinical Cmax of the agent was known.
Compounds. The drugs and investigational agents: pidnarulex (CX-5461; NSC782164), APTO-253 (NSC789042), BRACO-19 (NSC847499), peposertib (NSC802822), ceralasertib (NSC780249), elimusertib (NSC800525), camonsertib (NSC841442), AZD-1390 (NSC803789), olaparib (NSC753686), talazoparib (NSC767125), ART-558 (NSC835418), sotorasib (NSC818433), MRTX-1133 (NSC836407), SN-38 (NSC673596), topotecan (NSC609699), etoposide (NSC141540), doxorubicin (NSC123127), gemcitabine (NSC613327), 5-fluorouracil (NSC19893), paclitaxel (NSC125973), vemurafenib (NSC761431), panobinostat (NSC761190), R-306465 (JNJ-16241199; NSC773264), adavosertib (NSC754352), TP-3654 (NSC805149), carboplatin (NSC241240), KSQ-4279 (NSC840948), and staurosporine (NSC755774) were obtained from the National Cancer Institute (NCI) Developmental Therapeutics Program Chemical Repository (34). The FDA-approved anticancer drug set is available from the NCI Developmental Therapeutics Program. […] The stock solutions were prepared in dimethyl sulfoxide (DMSO, Sigma-Aldrich, St. Louis, MO, cat. D2650) at 800-fold the tested concentration and stored at -70 degrees C prior to their use. All drugs and investigational agents were tested over a range starting from a high concentration at or near the clinical Cmax and decreasing in half-log increments. If the clinical Cmax for an agent had not been determined, the highest concentration tested was 10 microM.
2.3 Cell Culture. All cells were maintained in an incubator at 37 degrees C and 5% CO2 with 95% humidity. The PDC lines were cultured according to standard operating procedures established by the NCI PDMR. All PDCs were thawed and cultured in Matrigel-coated flasks prepared with a working solution of 1X Ham's F-12 nutrient mix, without supplementation (Invitrogen, cat. 11765054), 100 U/mL penicillin-streptomycin (Invitrogen, cat. 15140122), and 2.5% Matrigel (Corning Inc., cat. 354248) for the first three passages. The 857933-349-R-J2-PDC line was cultured in 6C/Colon 1B media, which includes advanced DMEM/F-12 (Thermo Fisher Scientific, cat. 12634028), 10 mM HEPES (Thermo Fisher Scientific, cat. 15630080), 1X GlutaMAX supplement (Thermo Fisher Scientific, cat. 35050061), 0.1 mg/mL primocin (InvivoGen, cat. ant-pm-2), 10% defined fetal bovine serum, heat inactivated (HyClone Laboratories Inc., cat. SH30070.03HI), 50% L-WRN conditioned media (ATCC, cat. CRL-3276), 1.25 mM N-Acetyl-L-cysteine (Sigma-Aldrich, cat. A9165), 10 mM nicotinamide (Sigma-Aldrich, cat. N0636), 1X B-27 supplement (Thermo Fisher Scientific, cat. 17504044), 1X N-2 supplement (Thermo Fisher Scientific, cat. 17502048), 10 microM Y-27632 dihydrochloride (Tocris Bioscience, cat. 1254), and 50 ng/mL human EGF recombinant protein (Thermo Fisher Scientific, cat. PHG0311). The 485176-168-R4-J1-PDC line was cultured in Panc media, which includes all 6C/Colon 1B media components plus 100 ng/mL human FGF-10 (Thermo Fisher Scientific, cat. 100-26), 500 nM SB-431542 (Selleckchem, cat. S1067), and gastrin (Tocris, cat. 3006).
[…]

[1] = second compound 0.0316 µM, first compound 0.0316 µM
[2] = second compound 0.0316 µM, first compound 0.316 µM
[3] = second compound 0.1 µM, first compound 0.0316 µM
[4] = second compound 0.1 µM, first compound 0.316 µM
[5] = second compound 0.316 µM, first compound 0.0316 µM
[6] = second compound 0.316 µM, first compound 0.316 µM
[7] = second compound 1 µM, first compound 0.0316 µM
[8] = second compound 1 µM, first compound 0.316 µM
[9] = second compound 3.16 µM, first compound 0.0316 µM
[10] = second compound 3.16 µM, first compound 0.316 µM
[11] = second compound 10 µM, first compound 0.0316 µM
[12] = second compound 10 µM, first compound 0.316 µM
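Further: spheroids exposed to the agents for seven days before readout.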
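Wherever viability, T/C is given: percent of vehicle control viability with DMSO wells as 100%.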

## COc1cccc2c1C(=O)c1c(O)c3c(c(O)c1C2=O)CC(O)(C(=O)CO)CC3OC1CC(N)C(O)C(C)O1 (centres undefined) + Cc1cnc(CNC(=O)c2c(=O)c3ccc(N4CCCN(C)CC4)nc3n3c2sc2ccccc23)cn1
Second compound 0.0316 µM
  IC50: 171 nM
Second compound 0.1 µM
  IC50: 137 nM
Second compound 0.316 µM
  IC50: < 31.6 nM
Second compound 1 µM
  IC50: < 31.6 nM
Second compound 3.16 µM
  IC50: < 31.6 nM
Second compound 10 µM
  IC50: < 31.6 nM
[1]
  viability, T/C: 66.9%
Second compound 0.0316 µM, first compound 0.1 µM
  viability, T/C: 48.1%
[2]
  viability, T/C: 46.4%
Second compound 0.0316 µM, first compound 1 µM
  viability, T/C: 26%
Second compound 0.0316 µM, first compound 3.16 µM
  viability, T/C: 1.47%
Second compound 0.0316 µM, first compound 10 µM
  viability, T/C: 2.7%
[3]
  viability, T/C: 64.9%
Second compound 0.1 µM, first compound 0.1 µM
  viability, T/C: 53.1%
[4]
  viability, T/C: 37.9%
Second compound 0.1 µM, first compound 1 µM
  viability, T/C: 21.9%
Second compound 0.1 µM, first compound 3.16 µM
  viability, T/C: 1.96%
Second compound 0.1 µM, first compound 10 µM
  viability, T/C: 2.36%
[5]
  viability, T/C: 48.4%
Second compound 0.316 µM, first compound 0.1 µM
  viability, T/C: 50.5%
[6]
  viability, T/C: 44.8%
Second compound 0.316 µM, first compound 1 µM
  viability, T/C: 11.5%
Second compound 0.316 µM, first compound 3.16 µM
  viability, T/C: 0.48%
Second compound 0.316 µM, first compound 10 µM
  viability, T/C: 1.34%
[7]
  viability, T/C: 28.8%
Second compound 1 µM, first compound 0.1 µM
  viability, T/C: 35.5%
[8]
  viability, T/C: 26%
Second compound 1 µM, first compound 1 µM
  viability, T/C: 0.13%
Second compound 1 µM, first compound 3.16 µM
  viability, T/C: 0.11%
Second compound 1 µM, first compound 10 µM
  viability, T/C: 0.36%
[9]
  viability, T/C: 15.4%
Second compound 3.16 µM, first compound 0.1 µM
  viability, T/C: 19.2%
[10]
  viability, T/C: 3.74%
Second compound 3.16 µM, first compound 1 µM
  viability, T/C: 0.1%
Second compound 3.16 µM, first compound 3.16 µM
  viability, T/C: 0.13%
Second compound 3.16 µM, first compound 10 µM
  viability, T/C: 0.2%
[11]
  viability, T/C: 0.13%
Second compound 10 µM, first compound 0.1 µM
  viability, T/C: 0.19%
[12]
  viability, T/C: 0.2%
Second compound 10 µM, first compound 1 µM
  viability, T/C: 0.16%
Second compound 10 µM, first compound 3.16 µM
  viability, T/C: 0.19%
Second compound 10 µM, first compound 10 µM
  viability, T/C: 0.19%

## Cn1ncnc1[C@H]1c2n[nH]c(=O)c3cc(F)cc(c23)N[C@@H]1c1ccc(F)cc1 + Cc1cnc(CNC(=O)c2c(=O)c3ccc(N4CCCN(C)CC4)nc3n3c2sc2ccccc23)cn1
Second compound 0.0316 µM
  IC50: > 316 nM
Second compound 0.1 µM
  IC50: > 316 nM
Second compound 0.316 µM
  IC50: > 316 nM
Second compound 1 µM
  IC50: < 0.999 nM
Second compound 3.16 µM
  IC50: < 0.999 nM
Second compound 10 µM
  IC50: < 0.999 nM
Second compound 0.0316 µM, first compound 0.000999 µM
  viability, T/C: 82.1%
Second compound 0.0316 µM, first compound 0.00316 µM
  viability, T/C: 60.3%
Second compound 0.0316 µM, first compound 0.00999 µM
  viability, T/C: 66.2%
[1]
  viability, T/C: 60.9%
Second compound 0.0316 µM, first compound 0.0999 µM
  viability, T/C: 72.1%
[2]
  viability, T/C: 62.9%
Second compound 0.1 µM, first compound 0.000999 µM
  viability, T/C: 59.5%
Second compound 0.1 µM, first compound 0.00316 µM
  viability, T/C: 60.5%
Second compound 0.1 µM, first compound 0.00999 µM
  viability, T/C: 47.1%
[3]
  viability, T/C: 57%
Second compound 0.1 µM, first compound 0.0999 µM
  viability, T/C: 59.4%
[4]
  viability, T/C: 62.4%
Second compound 0.316 µM, first compound 0.000999 µM
  viability, T/C: 58.9%
Second compound 0.316 µM, first compound 0.00316 µM
  viability, T/C: 57.8%
Second compound 0.316 µM, first compound 0.00999 µM
  viability, T/C: 55.4%
[5]
  viability, T/C: 53.1%
Second compound 0.316 µM, first compound 0.0999 µM
  viability, T/C: 49.6%
[6]
  viability, T/C: 53.4%
Second compound 1 µM, first compound 0.000999 µM
  viability, T/C: 42.4%
Second compound 1 µM, first compound 0.00316 µM
  viability, T/C: 46.8%
Second compound 1 µM, first compound 0.00999 µM
  viability, T/C: 59.2%
[7]
  viability, T/C: 49.8%
Second compound 1 µM, first compound 0.0999 µM
  viability, T/C: 47.1%
[8]
  viability, T/C: 46.9%
Second compound 3.16 µM, first compound 0.000999 µM
  viability, T/C: 17.9%
Second compound 3.16 µM, first compound 0.00316 µM
  viability, T/C: 18.4%
Second compound 3.16 µM, first compound 0.00999 µM
  viability, T/C: 12.7%
[9]
  viability, T/C: 23%
Second compound 3.16 µM, first compound 0.0999 µM
  viability, T/C: 20.4%
[10]
  viability, T/C: 11.9%
Second compound 10 µM, first compound 0.000999 µM
  viability, T/C: 0.24%
Second compound 10 µM, first compound 0.00316 µM
  viability, T/C: 11.3%
Second compound 10 µM, first compound 0.00999 µM
  viability, T/C: 0.24%
[11]
  viability, T/C: 0.21%
Second compound 10 µM, first compound 0.0999 µM
  viability, T/C: 0.18%
[12]
  viability, T/C: 9.04%
